Measurements taken from patent US11241453B2, “Arsenic compositions” (Eupharma Pty Ltd, priority 2016, dated 2022).
Values joined by “and” are separate entries in the source; they are usually repeats but may differ in a detail not shown here. Identical values can stand only once. Like-named read-outs stand apart in the source and are kept apart here.

Assays:
[1] = cited from earlier work
[2] = cited from earlier work; remark: listed apart in the source
[3] = format: physicochemical
[4] = Dissolution in near neutral solution at pH 6.5; format: physicochemical; details: for Time until capsule opens: pH 6.5, 150 mls, 37° C., stirred
Experimental: Dissolution experiments were carried out on NaHAs2O4 at 2 different pH levels. Firstly, simulated gastric fluid (pH 1.24) was used, then a near neutral solution at pH 6.5. Prior to addition of the capsules, 150 mls of the dissolution solution was heated to 37° C. and the solution contained a spin bar at a speed of 2. The appropriate capsule was then added.

[5] = gelatin capsule in 150 mL simulated gastric solution, approx. pH 1.2, 37° C.

Substance	Solubility (in words) ([1]; neutral pH)	Solubility in water (in words) ([1]; physiological or acidic pH)	Time required for complete dissolution ([2]; 0.1 M NaOH) [min]	Dissolution (in words) ([2]; in vitro, strong stirring, low pH)	Time until capsule opens ([3]; 10 mg capsule, pH 1.24, 150 mls, 37° C., stirred)	Time to complete dissolution in gastric juices [3]	Time to complete dissolution in gastric juices ([3]; 'even less than')	Time until capsule shell had dissolved [3, 5]	Time until contents had completely dissolved [3, 5] [min]	Time to dissolve ([3]; pH about 1)	Time until powder was completely dissolved ([3]; simulated gastric fluid pH 1.24, 37° C.)	Dissolution in stomach acid (in words) ([3]; stomach acid)	Time until capsule opens ([4]; 1 mg capsule)	Time until capsule opens ([4]; 10 mg capsule)	Time until powder was completely dissolved ([4]; near neutral solution pH 6.5, 37° C.)	Time to dissolve ([4]; pH 7)
arsenic trioxide	only slightly soluble	only sparingly soluble	15 to 20	very slow process	–	–	–	–	–	–	–	–	–	–	–	–
sodium diarsenic tetraoxide [NaHAs2O4]	–	–	–	–	35 s and 40 s	less than 1 min	less than 30 seconds	less than or about one minute	≤ 2	less than 10 seconds	less than two minutes	very rapidly dissolved in stomach acid without any precipitation	50 s and 45 s	55 s and 50 s	less than two minutes	well under a minute
